Measurements published in ChEMBL document CHEMBL1149990, “1-(2-METHOXYPHENYL)-4-ALKYLPIPERAZINES: EFFECT OF THE N-4 SUBSTITUENT ON THE AFFINITY AND SELECTIVITY FOR DOPAMINE D4 RECEPTOR” (Bioorg Med Chem Lett, 1997).

Assays:
D(4) dopamine receptor = target: T1, D(4) dopamine receptor (Homo sapiens, UniProt P21917); experiment: Displacement of [3H]YM-09151-2 from human Dopamine receptor D4.2 expressed in baculovirus Sf9 cells
T1 sequence (P21917 whole entry): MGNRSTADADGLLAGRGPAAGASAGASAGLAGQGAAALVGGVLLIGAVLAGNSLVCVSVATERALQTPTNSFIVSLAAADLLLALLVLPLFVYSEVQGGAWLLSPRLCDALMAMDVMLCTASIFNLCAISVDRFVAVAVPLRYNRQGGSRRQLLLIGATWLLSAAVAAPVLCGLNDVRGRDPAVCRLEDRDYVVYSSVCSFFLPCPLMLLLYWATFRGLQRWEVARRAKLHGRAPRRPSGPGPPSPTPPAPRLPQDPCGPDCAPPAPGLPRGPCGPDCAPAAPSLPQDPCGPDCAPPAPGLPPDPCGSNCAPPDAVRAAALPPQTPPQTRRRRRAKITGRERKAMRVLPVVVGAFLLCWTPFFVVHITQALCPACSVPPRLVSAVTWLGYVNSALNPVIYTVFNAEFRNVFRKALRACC

[1] = target: T2, Adrenergic receptor alpha-1 (Rattus norvegicus, UniProt P15823+P23944+P43140); experiment: Displacement of [3H]prazosin from Alpha-1 adrenergic receptor of rat cerebral cortex; assay type: tissue-based
T2 sequence (P15823 whole entry): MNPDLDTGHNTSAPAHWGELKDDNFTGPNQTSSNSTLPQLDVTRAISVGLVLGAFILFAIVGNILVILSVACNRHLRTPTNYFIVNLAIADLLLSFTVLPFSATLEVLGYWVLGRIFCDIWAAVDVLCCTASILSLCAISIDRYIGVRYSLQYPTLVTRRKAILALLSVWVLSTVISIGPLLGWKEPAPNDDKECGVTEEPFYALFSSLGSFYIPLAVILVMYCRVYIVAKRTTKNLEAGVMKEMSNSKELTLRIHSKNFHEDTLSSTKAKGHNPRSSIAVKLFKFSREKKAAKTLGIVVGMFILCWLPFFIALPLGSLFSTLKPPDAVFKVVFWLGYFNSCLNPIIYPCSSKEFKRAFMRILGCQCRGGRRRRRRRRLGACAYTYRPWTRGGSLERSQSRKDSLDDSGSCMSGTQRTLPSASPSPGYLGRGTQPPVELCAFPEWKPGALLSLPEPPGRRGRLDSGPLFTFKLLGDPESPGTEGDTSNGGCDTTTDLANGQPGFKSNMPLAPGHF
T2 sequence (P23944 whole entry): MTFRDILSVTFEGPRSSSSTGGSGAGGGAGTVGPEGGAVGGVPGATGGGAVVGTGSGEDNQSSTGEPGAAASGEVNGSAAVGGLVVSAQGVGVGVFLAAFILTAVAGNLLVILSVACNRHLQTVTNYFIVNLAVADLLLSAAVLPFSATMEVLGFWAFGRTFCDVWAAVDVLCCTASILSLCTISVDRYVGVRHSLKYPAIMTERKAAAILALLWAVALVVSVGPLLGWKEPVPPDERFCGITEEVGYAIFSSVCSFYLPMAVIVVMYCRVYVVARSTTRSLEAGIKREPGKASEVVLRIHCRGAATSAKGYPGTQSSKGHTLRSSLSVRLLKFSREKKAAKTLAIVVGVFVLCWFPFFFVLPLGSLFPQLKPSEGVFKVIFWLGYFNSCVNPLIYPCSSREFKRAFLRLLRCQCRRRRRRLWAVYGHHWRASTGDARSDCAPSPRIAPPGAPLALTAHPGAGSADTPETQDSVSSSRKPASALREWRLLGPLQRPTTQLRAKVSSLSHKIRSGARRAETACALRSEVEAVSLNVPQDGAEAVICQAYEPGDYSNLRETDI
T2 sequence (P43140 whole entry): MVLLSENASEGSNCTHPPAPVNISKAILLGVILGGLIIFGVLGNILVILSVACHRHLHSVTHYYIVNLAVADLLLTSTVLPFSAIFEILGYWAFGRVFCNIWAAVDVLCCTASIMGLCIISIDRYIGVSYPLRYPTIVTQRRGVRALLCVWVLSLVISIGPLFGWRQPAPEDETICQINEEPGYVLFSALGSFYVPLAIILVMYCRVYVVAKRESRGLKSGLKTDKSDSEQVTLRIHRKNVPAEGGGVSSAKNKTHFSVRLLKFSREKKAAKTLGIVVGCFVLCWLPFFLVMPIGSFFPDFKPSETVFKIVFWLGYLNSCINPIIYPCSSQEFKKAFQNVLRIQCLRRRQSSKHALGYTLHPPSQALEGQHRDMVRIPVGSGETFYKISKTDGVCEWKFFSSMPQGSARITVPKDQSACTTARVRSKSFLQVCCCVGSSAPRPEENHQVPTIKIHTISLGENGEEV

Compound | Ki (D(4) dopamine receptor) | Ki [1]
COc1ccccc1N1CCN(CCCCC2CCCc3c(OC)cccc32)CC1 (stereo not given) | 43 nM | 65 nM
COc1cccc(C(=O)CCCCN2CCN(c3ccccc3OC)CC2)c1 | 43 nM | 41 nM
COc1ccccc1N1CCN(Cc2cccc(-c3ccccc3)c2)CC1 | 8 nM | 
COc1ccccc1N1CCN(CCC(=O)NC2CCCc3c(OC)cccc32)CC1 (stereo not given) | 67 nM | 125 nM
COc1ccccc1N1CCN(CCCC2CCCc3c(OC)cccc32)CC1 (stereo not given) |  | 1 nM
COc1ccccc1N1CCN(CCCNC(=O)C2CCCc3cccc(OC)c32)CC1 (stereo not given) | 49 nM | 70 nM

Further lines, results first:

Ki (D(4) dopamine receptor) | Ki [1] | Compound
22 nM |  | COc1ccccc1N1CCN(CCNC(=O)C2CCCc3c(OC)cccc32)CC1 (stereo not given)
19 nM | 8 nM | COc1cc(N)c(Cl)cc1C(=O)NCCN1CCN(c2ccccc2OC)CC1
1.7 nM | 19 nM | COc1cccc(C(=O)CCCN2CCN(c3ccccc3OC)CC2)c1
